# Measurements published in patent publication US20110263487A1, “Plant Production and Delivery System for Recombinant Proteins as Protein-Flour or Protein-Oil Compositions” (University of Georgia Research Foundation, Inc., priority 2007, published 2011).
# System: Fall Army Worm, Spodoptera frupperda
# Assay: Larvae feeding on transgenic Arabidopsis plants, mortality
# Assay type: in vivo
# Conditions: relative to control plants
# Experimental: The mortality of moth larvae species was assayed examining the feeding of the three genotypes of transgenic plants relative to each other and relative to wild-type plant controls. An initial result indicates extremely high expression levels of the B.t. and B.t.B expressed from the ACTIN 2 A2pt cassette can be achieved. […] Cry1Ac (plant line Cry1#31, Table 2). The mortality of Fall Army Worm, Spodoptera frupperda, which is 100-fold less sensitive to Cry1Ac, was assayed feeding on these plants.
substance,measurement,value
B.t. Cry1Ac: Bacillus thuringiensis toxin Cry1Ac expressed in transgenic Arabidopsis from A2pt::Cry1Ac (SEQ ID NO: 1),killing of the Fall Army Worm feeding on transgenic plants,weak killing activity
